Columns and labels:
Assay type in all cases: cell-based
[1] = target: T1, ADBR2 (Homo sapiens, UniProt P07550); test: CRE-Luc reporter Gs signaling assay, control receptor ADBR2
T1 construct: host or cells: HEK293 or CHO cell lines (ATCC)
Experimental: (§1) Compounds were tested in the reporter system with increasing concentrations of GPR174-interacting compounds. GPR174 construct pCMV6-XL4-GPR174 or ADBR2, reporter of interest, pCRE-Luc or GL4.29 (3000 ng), and TK-renilla as an internal control (10 ng) with lipofectamine 2000 (60 ug) (Invitrogen, CA) according to the manufacturer's directions.
(§2) The DNA/lipofectamine 2000 mix (3000 μL) was incubated at room temperature for 30 minutes and then added into a 10 cm culture dish (Corning, NY) containing 70-90% confluent cultured cells, typically HEK293 or CHO cell lines (ATCC, VA), in 15 mL of media. The cells were further incubated for 4-6 hours at 37° C. and then media were removed and cells were detached with 2 mL trypsin (Life Technologies, CA). Media (26 mL) were added to the detached cells and 120 μL of transfected cells were transferred to each well on a 96-well plate. Increasing concentration of each compound in DMSO (1.2 μl) was added to the cells after plating into the 96-well plate. The cells were further incubated at 37° C. for various times. The media were removed and the cells lysed. Luciferase and renilla activities were measured with the Dual-luciferase assay system (Promega, WI) according to the manufacturer's directions. Typically, lysis buffer (25 μL) was added to the cells and incubated at room temperature for 20-30 minutes to allow for the cells to lyse. The lysate (10 μL) was measured for luciferase and renilla activity with LARII and Stop&Glo reagent (50 μL each) with a SpectraMax L (Molecular Devices, CA). Data were analyzed with either Excel (Microsoft, WA) or Prism 4.03 (GraphPad, CA).
(§3) ADBR2 is a GPCR, like GPR174, that activates the Gs signaling pathway.

[2] = tested on: CHRM1; test: Cellular Redistribution Assay (CRA) against CHRM1; details: FIG. 5B
Excerpt: (§4) The inventors used a CRA similar to that described in U.S. Pat. No. 7,309,576 and O'Dowd et al., J. Biomol. Screen. 12:175-85, 2007 to identify compounds that are capable of interacting with GPR174 using a library of approximately 370,000 chemical entities. Briefly described, the CRA assay described in U.S. Pat. No. 7,309,576 involves artificially inserting a NLS into the dopamine D1 receptor (DRD1), which allows the receptor to traffic from the cell membrane to the cell interior, and that the binding of antagonists to the receptor retained the receptor at the cell surface, while removal of the ligand allowed the receptor to continue to internalize from the cell surface. Both antagonists and agonists that selectively bound the receptor retained the receptor on the plasma membrane. GPR174 constructs were generated for use in a CRA-based compound screening assay. From this screen, the inventors initially identified compounds of formula I-VI, as described herein and included in TABLE 1.
The inventors also sought to validate that the compounds identified using the CRA are modulatory compounds. To this end, the above-described CRA was used to screen a library for compounds that interact with three control non-orphan receptors, and the results of this screen were compared to the results of screening the same library for compound that were identified using a Fluorometric Imaging Plate Reader (FLIPR) assay, a conventional technique commonly used to identify compounds interacting with non-orphan GPCRs signaling through Ca+. Three non-orphan GPCRs—Muscarinic acetylcholine receptor M1 (CHRM1), Adrenergic receptor alpha 1a (ADRA1a), and Neuropeptide S receptor (NPSR)—were screened against a 10,000-compound GPCR-focused library. Thirty interacting compound “hits” were identified using the CRA, and eighty-one hits were identified using the FLIPR for the CHRM1 receptor; 9 CRA hits and 29 FLIPR hits for the NPS receptor were identified; and 110 CRA hits and 110 FLIPR hits for ADRA1a.
In addition, the CRA can also provide the relative potencies of compounds against the target receptor.

[3] = target: T2, GPR174 (Homo sapiens, UniProt Q9BXC1); test: CRE-Luc reporter Gs signaling assay, cells transfected with GPR174; set-up: host or cells: HEK293 or CHO cell lines (ATCC); details: for effect on Gs pathway in the presence of GPR174: CRE-Luc reporter
Experimental: as §1, §2, §3
Target sequence in this assay (Q9BXC1 whole entry): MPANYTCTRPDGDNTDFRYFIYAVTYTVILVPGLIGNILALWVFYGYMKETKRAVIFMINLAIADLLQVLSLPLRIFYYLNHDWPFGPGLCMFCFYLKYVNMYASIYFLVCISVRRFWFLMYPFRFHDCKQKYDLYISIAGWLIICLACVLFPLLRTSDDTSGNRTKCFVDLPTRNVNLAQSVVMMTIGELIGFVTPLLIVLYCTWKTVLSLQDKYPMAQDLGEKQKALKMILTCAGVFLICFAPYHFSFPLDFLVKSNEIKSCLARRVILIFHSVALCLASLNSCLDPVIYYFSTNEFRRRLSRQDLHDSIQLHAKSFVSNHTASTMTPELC

[4] = target: T2, GPR174; test: Cellular Redistribution Assay (CRA) against GPR174; set-up: fused on or other part: No tag or reporter is given; details: FIG. 5A
Excerpt: One method for identifying compounds capable of modulating a receptor is using a cellular redistribution assay (“CRA”). Exemplary CRA methods are found in U.S. Pat. No. 7,309,576 issued to O'Dowd et al. and in O'Dowd et al., J. Biomol. Screen. 12:175-85, 2007. […] Incorporation of the NLS alters the cellular localization of the GPCR, such that the majority of the NLS-modified receptor is present in the cell interior. An NLS-modified GPCR, when interacting with a functionally active compound, is mostly localized on the cell surface. Thus, it becomes possible to identify receptor modulators without knowledge of the endogenous ligand or a surrogate ligand.
The inventors have identified a number of compounds that inhibit GPR174 using a CRA assay similar to that described in U.S. Pat. No. 7,309,576 and in O'Dowd et al., J. Biomol. Screen. 12:175-85, 2007. These compounds are described in detail below.
as §4
Target sequence in this assay (Q9BXC1 1-290 limits assumed): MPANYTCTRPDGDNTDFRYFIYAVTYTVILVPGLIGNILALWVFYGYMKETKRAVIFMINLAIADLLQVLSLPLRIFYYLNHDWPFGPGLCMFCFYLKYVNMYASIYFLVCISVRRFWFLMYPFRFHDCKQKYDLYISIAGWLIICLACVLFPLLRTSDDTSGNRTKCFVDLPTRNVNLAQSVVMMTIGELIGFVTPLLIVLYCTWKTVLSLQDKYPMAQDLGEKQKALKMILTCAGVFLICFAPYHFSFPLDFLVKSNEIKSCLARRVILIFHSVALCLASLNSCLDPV

[5] = target: T1, ADBR2; test: GloSensor assay, ADBR2 control
Experimental: (§5) In order to confirm that GPR174 interacting compound #4 is an antagonist of GPR174-mediated Gs signaling, a GloSensor assay was carried out with increasing concentrations of compound #4 in the presence or absence of a fixed concentration (1 μM) of the GPR174 agonist LysoPS as follows.
(§6) The GloSensor Assay was performed by transiently transfecting the GPR174 construct, pCMV6-XL4-GPR174 or ADBR2, pGlo22 (300 ng) (Promega) with lipofectamine 2000 (60 μg) (Invitrogen, CA) according to the manufacturer's directions. The DNA/lipofectamine 2000 mix (3000 μL) was incubated at room temperature for 30 minutes and then added into a 10 cm culture dish (Corning, NY) containing 70-90% confluent cultured cells, typically HEK293 or CHO cell lines (ATCC, VA), in 15 mL of media. […] The cells were then incubated at room temperature for 2 hours and the cell plates were pre-read with a SpectraMax L (Molecular Devices, CA). After the pre-read, increasing concentrations of each compound in DMSO (1.0 μl) was added to the cells. The cell plates containing the compound were read immediately after the compound was added and at various times up to 30 minutes after the addition of the compound with a SpectraMax L (Molecular Devices, CA). Data were analyzed with either Excel (Microsoft, WA) or Prism 4.03 (GraphPad, CA).

[6] = target: T2, GPR174; test: GloSensor assay, GPR174, with or without LysoPS; set-up: host or cells: HEK293 or CHO cell lines (ATCC)
Experimental: as §5, §6
Target sequence in this assay (Q9BXC1 whole entry, species assumed): as the sequence (Q9BXC1 whole entry) above

effect on Gs pathway in the presence of ADBR2 [1]	effect on Gs pathway in the presence of GPR174 [3]	Human GPR174 CRE Activity: nature of compound [3]	nature of compound in GPR174 signaling assay ([3]; human GPR174 with pCRE-Luc)	modulation of Gs pathway in the presence of GPR174 (GloSensor) ([6]; compound alone)	Compound	activity in CRA against CHRM1 [2]	dose-response in CRA against GPR174 [4]	modulation of Gs signaling in the presence of ADBR (GloSensor) [5]	competition with GPR174 agonist LysoPS (GloSensor) ([6]; fixed 1 μM LysoPS)
did not inhibit the Gs pathway	inhibited the Gs pathway	–	–	–	CC(=O)N1CCN(c2cc(N3CCCCC3)c(F)cc2[N+](=O)[O-])CC1 [Compound 2]	do not show any activity against CHRM1	show a dose-response curve against GPR174	–	–
did not modulate the Gs pathway	did not modulate the Gs pathway	Antagonist	GPR174 antagonist	does not modulate the Gs pathway	CCCC(=O)c1ccc(N2CCN(S(=O)(=O)c3ccc(C)cc3)CC2)c(F)c1 [Compound 4]	do not show any activity against CHRM1	show a dose-response curve against GPR174	neither compound #4 nor LysoPS modulate Gs signaling	does compete with the GPR174 agonist LysoPS
–	–	–	–	–	lysophosphatidylserine [LysoPS, reference compound]	–	–	neither compound #4 nor LysoPS modulate Gs signaling	–

Reference: patent publication US20230321083A1, “Inhibitors of GPR174 and Uses Thereof” (Omeros Corporation, priority 2016, published 2023)
